Tested on in the first data set: not listed separately
Kind of data set: Efflux ratio of permeability from basolateral to apical side over apical to basolateral side in human Caco2 cells at 10 uM after 1 to 2 hrs by LC-MS analysis. The format is ADME, cell-based. The note with it: Caco-2.
For the compound `CS(=O)(=O)Nc1ccc([N+](=O)[O-])cc1Oc1cccc(I)c1`, the efflux ratio at 10 µM was found to be 0.67.

With `CS(=O)(=O)Nc1ccc([N+](=O)[O-])cc1Oc1ccccc1I`, the efflux ratio at 10 µM worked out at 0.78.

For `CS(=O)(=O)Nc1ccc([N+](=O)[O-])cc1Oc1ccc(I)cc1`, the efflux ratio at 10 µM came out at 0.78.

Tested on in another data set: not listed separately
Briefly: Efflux ratio of permeability from basolateral to apical side over apical to basolateral side in human Caco2 cells at 1 uM after 1 to 2 hrs by LC-MS analysis. The format is ADME, cell-based. The note with it: Caco-2. (Caco-2 cells form a polarised layer with tight junctions and transporters.)
Regarding `CS(=O)(=O)Nc1ccc([N+](=O)[O-])cc1Oc1cccc(I)c1`, the efflux ratio at 1 µM worked out at 0.84.

`CS(=O)(=O)Nc1ccc([N+](=O)[O-])cc1Oc1ccccc1I`: the efflux ratio at 1 µM stood at 0.72.

`CS(=O)(=O)Nc1ccc([N+](=O)[O-])cc1Oc1ccc(I)cc1`: the efflux ratio at 1 µM worked out at 0.45.

In another data set the target is T1, Prostaglandin G/H synthase 2 (Ovis aries, UniProt P79208).
T1 sequence (P79208 whole entry): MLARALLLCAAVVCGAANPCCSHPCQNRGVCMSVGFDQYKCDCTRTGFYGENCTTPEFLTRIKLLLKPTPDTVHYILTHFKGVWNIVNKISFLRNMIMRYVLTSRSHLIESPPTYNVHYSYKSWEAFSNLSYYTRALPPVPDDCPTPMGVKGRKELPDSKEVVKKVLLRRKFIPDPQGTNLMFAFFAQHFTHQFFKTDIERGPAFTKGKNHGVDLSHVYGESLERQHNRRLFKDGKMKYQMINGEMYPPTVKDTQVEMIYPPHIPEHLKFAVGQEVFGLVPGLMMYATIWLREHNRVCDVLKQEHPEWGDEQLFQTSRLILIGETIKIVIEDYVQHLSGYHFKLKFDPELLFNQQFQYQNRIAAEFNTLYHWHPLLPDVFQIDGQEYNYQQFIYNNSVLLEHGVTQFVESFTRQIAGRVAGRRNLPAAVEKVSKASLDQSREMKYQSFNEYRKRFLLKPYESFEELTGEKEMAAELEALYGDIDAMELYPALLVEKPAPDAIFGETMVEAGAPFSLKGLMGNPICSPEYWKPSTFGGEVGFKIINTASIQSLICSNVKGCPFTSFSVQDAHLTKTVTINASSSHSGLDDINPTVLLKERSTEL
Kind of data set: Inhibition of heme catalyzed hydroperoxidase activity of ovine COX-2 using arachidonic acid as substrate preincubated for 5 mins followed by substrate addition measured after 5 mins by TMPD oxidation based colorimetric assay.
Conditions: not given
As for `CS(=O)(=O)Nc1ccc([N+](=O)[O-])cc1Oc1cccc(I)c1`, the IC50 is more than 100 µM.

In turn, `CS(=O)(=O)Nc1ccc([N+](=O)[O-])cc1Oc1ccccc1I` displayed an IC50 of more than 100 µM.

The compound `CS(=O)(=O)Nc1ccc([N+](=O)[O-])cc1Oc1ccc(I)cc1` displayed an IC50 of 0.47 µM.

Tested on in the next data set: not listed separately
Briefly: Apparent permeability from apical to basolateral side in human Caco2 cells at 1 uM after 1 to 2 hrs by LC-MS analysis. It is filed as ADME, cell-based. The settings on record: Caco-2.
As to `CS(=O)(=O)Nc1ccc([N+](=O)[O-])cc1Oc1cccc(I)c1`, the Papp A→B at 1 µM is 31.4 ×10⁻⁶ cm/s.

For the compound `CS(=O)(=O)Nc1ccc([N+](=O)[O-])cc1Oc1ccccc1I`, the Papp A→B at 1 µM amounted to 30.1 ×10⁻⁶ cm/s.

Consider `CS(=O)(=O)Nc1ccc([N+](=O)[O-])cc1Oc1ccc(I)cc1`, for which the Papp A→B at 1 µM worked out at 40.5 ×10⁻⁶ cm/s.

Tested on in a further data set: not listed separately
Kind of data set: Apparent permeability from basolateral to apical side in human Caco2 cells at 1 uM after 1 to 2 hrs by LC-MS analysis. The format is ADME, cell-based. The note with it: Caco-2.
For the compound `CS(=O)(=O)Nc1ccc([N+](=O)[O-])cc1Oc1cccc(I)c1`, the Papp B→A at 1 µM amounted to 26.4 ×10⁻⁶ cm/s.

For `CS(=O)(=O)Nc1ccc([N+](=O)[O-])cc1Oc1ccccc1I`, the Papp B→A at 1 µM was found to be 21.9 ×10⁻⁶ cm/s.

On to `CS(=O)(=O)Nc1ccc([N+](=O)[O-])cc1Oc1ccc(I)cc1`, for which the Papp B→A at 1 µM turned out to be 18.3 ×10⁻⁶ cm/s.

Tested on in a further data set: not listed separately
Kind of data set: Octanol-water partition coefficient, log P of compound at pH 7.4 by reverse phase HPLC analysis. It is filed as physicochemical.
Conditions: not given
With `CS(=O)(=O)Nc1ccc([N+](=O)[O-])cc1Oc1cccc(I)c1`, the logP was found to be 2.72.

As for `CS(=O)(=O)Nc1ccc([N+](=O)[O-])cc1Oc1ccccc1I`, the logP is 2.11.

`CS(=O)(=O)Nc1ccc([N+](=O)[O-])cc1Oc1ccc(I)cc1`: the logP was 2.77.

Tested on in the next data set: not listed separately
Kind of data set: Apparent permeability from apical to basolateral side in human Caco2 cells at 10 uM after 1 to 2 hrs by LC-MS analysis. It is filed as ADME, cell-based. The settings on record: Caco-2.
Consider `CS(=O)(=O)Nc1ccc([N+](=O)[O-])cc1Oc1cccc(I)c1`, for which the Papp A→B at 10 µM worked out at 27 ×10⁻⁶ cm/s.

Consider `CS(=O)(=O)Nc1ccc([N+](=O)[O-])cc1Oc1ccccc1I`, for which the apical-to-basolateral permeability (Papp A→B) at 10 µM stood at 33.8 ×10⁻⁶ cm/s.

Consider `CS(=O)(=O)Nc1ccc([N+](=O)[O-])cc1Oc1ccc(I)cc1`, for which the Papp A→B at 10 µM was determined as 17.1 ×10⁻⁶ cm/s.

Tested on in another data set: not listed separately
Kind of data set: Acid dissociation constant, pKa of compound at 20 ug/ml at pH 5.6 to 6.8 by micro-scale spectrophotometric method. The format is physicochemical.
Conditions: not given
Turning to `CS(=O)(=O)Nc1ccc([N+](=O)[O-])cc1Oc1ccccc1` [NIMESULIDE], the pKa stood at 6.57.

`CS(=O)(=O)Nc1ccc([N+](=O)[O-])cc1Oc1cccc(I)c1` displayed a pKa of 6.74.

In the case of `CS(=O)(=O)Nc1ccc([N+](=O)[O-])cc1Oc1ccccc1I`, the pKa turned out to be 6.57.

Consider `COc1cccc(Oc2cc([N+](=O)[O-])ccc2NS(C)(=O)=O)c1`, for which the pKa was 6.87.

With `COc1ccc(Oc2cc([N+](=O)[O-])ccc2NS(C)(=O)=O)cc1`, the pKa worked out at 7.01.

The compound `COc1ccccc1Oc1cc([N+](=O)[O-])ccc1NS(C)(=O)=O` yielded a pKa of 7.07.

As to `CS(=O)(=O)Nc1ccc([N+](=O)[O-])cc1Oc1ccc(I)cc1`, the pKa came out at 6.89.

Tested on in the next data set: not listed separately
Briefly: Apparent permeability from basolateral to apical side in human Caco2 cells at 10 uM after 1 to 2 hrs by LC-MS analysis. It is filed as ADME, cell-based. The note with it: Caco-2.
On to `CS(=O)(=O)Nc1ccc([N+](=O)[O-])cc1Oc1cccc(I)c1`, for which the Papp B→A at 10 µM is 18 ×10⁻⁶ cm/s.

For `CS(=O)(=O)Nc1ccc([N+](=O)[O-])cc1Oc1ccccc1I`, the Papp B→A at 10 µM was 26.4 ×10⁻⁶ cm/s.

With `CS(=O)(=O)Nc1ccc([N+](=O)[O-])cc1Oc1ccc(I)cc1`, the Papp B→A at 10 µM was 13.4 ×10⁻⁶ cm/s.

Tested on in the next data set: not listed separately
Briefly: Stability in Balb/cCrSlc mouse plasma assessed as parent compound remaining up to 120 mins by HPLC analysis. It is filed as ADME, cell-free. The note with it: read-out: Stability.
For `CS(=O)(=O)Nc1ccc([N+](=O)[O-])cc1Oc1ccccc1` [NIMESULIDE], the remaining at 2 h was 98%.

Consider `CS(=O)(=O)Nc1ccc([N+](=O)[O-])cc1Oc1cccc(I)c1`, for which the remaining at 2 h stood at 98.4%.

For `CS(=O)(=O)Nc1ccc([N+](=O)[O-])cc1Oc1ccccc1I`, the remaining at 2 h was found to be 95%.

Turning to `COc1cccc(Oc2cc([N+](=O)[O-])ccc2NS(C)(=O)=O)c1`, the remaining at 2 h was found to be 99.3%.

With `COc1ccc(Oc2cc([N+](=O)[O-])ccc2NS(C)(=O)=O)cc1`, the remaining at 2 h worked out at 98.5%.

Turning to `COc1ccccc1Oc1cc([N+](=O)[O-])ccc1NS(C)(=O)=O`, the remaining at 2 h turned out to be 97.6%.

Turning to `CS(=O)(=O)Nc1ccc([N+](=O)[O-])cc1Oc1ccc(I)cc1`, the remaining at 2 h amounted to 97.5%.

For the next data set, the target named is T2, Prostaglandin G/H synthase 1 (Ovis aries, UniProt P05979).
T2 sequence (P05979 whole entry): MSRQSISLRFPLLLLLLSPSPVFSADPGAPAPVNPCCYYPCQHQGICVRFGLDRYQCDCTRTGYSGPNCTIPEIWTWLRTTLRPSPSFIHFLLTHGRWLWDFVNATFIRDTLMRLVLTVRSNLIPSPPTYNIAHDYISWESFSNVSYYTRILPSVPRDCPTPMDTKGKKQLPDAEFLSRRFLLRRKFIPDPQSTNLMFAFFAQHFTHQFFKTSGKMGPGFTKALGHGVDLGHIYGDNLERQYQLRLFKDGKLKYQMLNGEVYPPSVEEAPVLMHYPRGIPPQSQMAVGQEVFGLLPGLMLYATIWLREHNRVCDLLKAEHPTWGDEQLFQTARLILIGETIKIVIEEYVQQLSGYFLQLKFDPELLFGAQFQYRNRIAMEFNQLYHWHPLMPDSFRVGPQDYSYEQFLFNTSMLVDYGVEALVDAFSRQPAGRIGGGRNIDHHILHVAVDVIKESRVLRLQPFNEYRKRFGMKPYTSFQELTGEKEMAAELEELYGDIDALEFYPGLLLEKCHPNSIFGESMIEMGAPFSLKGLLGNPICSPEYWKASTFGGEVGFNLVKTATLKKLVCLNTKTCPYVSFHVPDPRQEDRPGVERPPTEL
Briefly: Inhibition of heme catalyzed hydroperoxidase activity of ovine COX-1 using arachidonic acid as substrate preincubated for 5 mins followed by substrate addition measured after 5 mins by TMPD oxidation based colorimetric assay.
Conditions: not given
For `CS(=O)(=O)Nc1ccc([N+](=O)[O-])cc1Oc1cccc(I)c1`, the IC50 is more than 100 µM.

The compound `CS(=O)(=O)Nc1ccc([N+](=O)[O-])cc1Oc1ccccc1I` yielded an IC50 of more than 100 µM.

On to `CS(=O)(=O)Nc1ccc([N+](=O)[O-])cc1Oc1ccc(I)cc1`, for which the IC50 was more than 100 µM.

Broadly, the efflux ratio is a quotient of directional permeabilities that is used to spot active efflux. A word on the IC50: it is the point on the concentration scale where inhibition reaches its midpoint. The term Papp A→B denotes the apparent permeability from the apical to the basolateral side of a cell layer. The term Papp B→A denotes the apparent permeability from the basolateral to the apical side of a cell layer. In general, logP refers to a log measure of how a compound divides between an organic and an aqueous phase. For orientation: pKa means the pH at which an ionisable group is half protonated.

The values above are taken from ChEMBL document CHEMBL3817846, “Isomeric iodinated analogs of nimesulide: Synthesis, physicochemical characterization, cyclooxygenase-2 inhibitory activity, and transport across Caco-2 cells” (Bioorg Med Chem, 2016).
